{"source": "paper PMC12446468", "about": "“Anti-inflammatory and cytotoxic assessment of flavonoids isolated from Viola odorata flowers with computer-guided docking study” (Scientific Reports, 2025)", "key": {"[1]": {"tested_on": "human colorectal carcinoma cells (HTC-116)", "assay": "MTT cytotoxicity assay, HTC-116", "format": "cell-based", "details": "Homo sapiens, HTC-116, 48 h, read-out: IC50", "experimental": "(§1) The assessment of cytotoxicity for the methanolic extract and isolated flavonoids was performed under controlled and sterile conditions within a Class II A2 Laminar flow biosafety cabinet. The carcinoma cell lines used in this study was obtained from Nawah Scientific Inc. (Cairo, Egypt). The cells were cultured in Dulbecco’s Modified Eagle’s Medium, enriched with 10% heat-inactivated fetal bovine serum, 100 U/ml penicillin, and 100 μg/ml streptomycin sulfate, maintained at […] in humidified incubators with 5% CO2. Upon reaching approximately 80% confluence, the cells were subcultured using a trypsin–EDTA solution. Harvesting occurred during the logarithmic growth phase. The methanolic extract and isolated flavonoids were dissolved in DMSO and stored at − 20 °C. For each experimental trial, the stock solutions were mixed with the culture medium to obtain the required final concentrations.\n(§2) The effectiveness of the extract was compared to that of the reference drug, Doxorubicin. The percentage of cell viability was calculated by taking the ratio of the absorbance of the plant extract to that of the control, multiplied by 100. Furthermore, the IC50 value of the plant extract was determined using Sigma Plot software version 11 (Spw.exe) (https://sigmaplot.software.informer.com/11.0/)."}, "[2]": {"assay": "MTT cytotoxicity assay, HTC-116", "format": "cell-based, human", "details": "human, HTC-116 cells (human colorectal carcinoma), 48 h", "experimental": "as §1, §2"}, "[3]": {"tested_on": "hepatocellular carcinoma (HepG2)", "assay": "MTT cytotoxicity assay, HepG2", "format": "cell-based, human", "details": "Homo sapiens, HepG2, 48 h, read-out: IC50", "experimental": "as §1, §2"}, "[4]": {"assay": "MTT cytotoxicity assay, HepG2", "format": "cell-based, human", "details": "human, HepG2 cells (hepatocellular carcinoma), 48 h", "experimental": "as §1, §2"}, "[5]": {"target": "T1, COX-2 (Homo sapiens, UniProt P35354)", "T1 construct": "purchased Cayman 560131", "T1 sequence (P35354 18-604)": "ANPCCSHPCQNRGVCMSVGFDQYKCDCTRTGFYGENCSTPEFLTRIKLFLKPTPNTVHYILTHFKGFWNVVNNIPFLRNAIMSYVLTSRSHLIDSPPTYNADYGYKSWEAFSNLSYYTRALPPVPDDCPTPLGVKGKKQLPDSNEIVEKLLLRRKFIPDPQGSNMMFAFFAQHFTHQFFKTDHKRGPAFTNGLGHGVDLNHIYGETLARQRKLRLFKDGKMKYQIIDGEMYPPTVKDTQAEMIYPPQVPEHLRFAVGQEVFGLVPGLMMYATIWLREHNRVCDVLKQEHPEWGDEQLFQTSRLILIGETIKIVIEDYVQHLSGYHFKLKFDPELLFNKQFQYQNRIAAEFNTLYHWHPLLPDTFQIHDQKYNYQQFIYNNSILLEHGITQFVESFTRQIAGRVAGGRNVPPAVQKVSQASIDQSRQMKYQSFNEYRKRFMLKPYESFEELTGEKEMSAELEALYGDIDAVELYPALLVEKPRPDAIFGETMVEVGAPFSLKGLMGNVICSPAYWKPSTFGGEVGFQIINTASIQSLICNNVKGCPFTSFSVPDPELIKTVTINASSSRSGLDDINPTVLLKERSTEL", "assay": "COX-2 inhibition assay (Cayman COX kit)", "format": "biochemical, ovine/human", "source_text": "(§3) The requirements for High-Performance Liquid Chromatography (HPLC) and all compounds tested were of the utmost analytical purity. […] COX-1 and COX-2 (ovine/human), as well as the 5-LOX enzyme (human recombinant) were obtained from Sigma-Aldrich. Dulbecco’s Modified Eagle’s Medium (DMEM), along with penicillin/streptomycin and L-glutamine, were acquired from Gibco BRL, California, USA. Fetal bovine serum (FBS) and 3-(4, 5-dimethylthiazol-2-yl)-2, 5-[…] (MTT) were supplied by Sigma-Aldrich, St. Louis, Missouri, USA.\n(§4) The methanolic extract of V. odorata flowers and isolated flavonoids were subjected to an in vitro anti-inflammatory assessment by inhibiting two isoenzymes, cyclooxygenase COX-1 and COX-2 (ovine/human), as well as the 5-LOX enzyme (human recombinant)."}, "[6]": {"assay": "MTT cytotoxicity assay, Caco-2", "format": "cell-based, human", "details": "human, Caco-2 cells (human colonic epithelial cells), 48 h", "experimental": "as §1, §2"}, "[7]": {"tested_on": "human colonic epithelial cells (Caco-2)", "assay": "MTT cytotoxicity assay, Caco-2", "format": "cell-based", "details": "Homo sapiens, Caco-2, 48 h, read-out: IC50", "experimental": "as §1, §2"}, "[8]": {"target": "T2, COX-1 (Ovis aries, UniProt P05979)", "T2 construct": "purchased Cayman 560131", "T2 sequence (P05979 25-600)": "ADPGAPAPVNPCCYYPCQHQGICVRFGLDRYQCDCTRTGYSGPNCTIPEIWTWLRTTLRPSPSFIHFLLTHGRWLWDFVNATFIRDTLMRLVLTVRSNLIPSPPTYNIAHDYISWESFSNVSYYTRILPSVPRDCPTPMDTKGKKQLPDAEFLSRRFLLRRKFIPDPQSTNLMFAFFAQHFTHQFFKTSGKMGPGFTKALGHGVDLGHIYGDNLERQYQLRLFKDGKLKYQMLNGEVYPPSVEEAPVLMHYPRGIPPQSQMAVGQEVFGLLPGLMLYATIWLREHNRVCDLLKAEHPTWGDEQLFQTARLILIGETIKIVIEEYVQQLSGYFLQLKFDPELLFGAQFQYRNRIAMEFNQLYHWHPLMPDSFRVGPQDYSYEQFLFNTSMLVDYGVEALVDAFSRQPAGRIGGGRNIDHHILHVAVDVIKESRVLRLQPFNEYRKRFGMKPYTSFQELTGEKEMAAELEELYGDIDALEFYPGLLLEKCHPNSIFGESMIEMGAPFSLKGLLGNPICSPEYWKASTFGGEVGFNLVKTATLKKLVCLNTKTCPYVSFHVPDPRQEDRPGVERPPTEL", "assay": "COX-1 inhibition assay (Cayman COX kit)", "format": "biochemical, ovine/human", "details": "mean ± SE, n = 3", "source_text": "as §3, §4"}}, "data": [{"smiles": "COc1c(O)cc2oc(-c3ccccc3)c(OC)c(=O)c2c1O", "note": "[5,7-Dihydroxy-3,6-dimethoxyflavone]", "values": [{"measurement": "IC50", "setting": "[1]", "value": 31.9, "unit": "µg/mL"}, {"measurement": "cytotoxicity at 48 h, 6.25 µg/ml", "setting": "[2]; HTC-116, 6.25 ug/ml", "value": 29.8, "unit": "%"}, {"measurement": "viability at 48 h, 6.25 µg/ml", "setting": "[2]; HTC-116, 6.25 ug/ml, read-out: % Cell viability", "value": 70.2, "unit": "%"}, {"measurement": "cytotoxicity at 48 h, 12.5 µg/ml", "setting": "[2]; HTC-116, 12.5 ug/ml", "value": 39.2, "unit": "%"}, {"measurement": "viability at 48 h, 12.5 µg/ml", "setting": "[2]; HTC-116, 12.5 ug/ml, read-out: % Cell viability", "value": 60.8, "unit": "%"}, {"measurement": "cytotoxicity at 48 h, 25 µg/ml", "setting": "[2]; HTC-116, 25 ug/ml", "value": 49.9, "unit": "%"}, {"measurement": "viability at 48 h, 25 µg/ml", "setting": "[2]; HTC-116, 25 ug/ml, read-out: % Cell viability", "value": 50.1, "unit": "%"}, {"measurement": "cytotoxicity at 48 h, 50 µg/ml", "setting": "[2]; HTC-116, 50 ug/ml", "value": 64.9, "unit": "%"}, {"measurement": "viability at 48 h, 50 µg/ml", "setting": "[2]; HTC-116, 50 ug/ml, read-out: % Cell viability", "value": 35.1, "unit": "%"}, {"measurement": "cytotoxicity at 48 h, 100 µg/ml", "setting": "[2]; HTC-116, 100 ug/ml", "value": 85.9, "unit": "%"}, {"measurement": "viability at 48 h, 100 µg/ml", "setting": "[2]; HTC-116, 100 ug/ml, read-out: % Cell viability", "value": 14.1, "unit": "%"}, {"measurement": "IC50", "setting": "[3]", "value": 32, "unit": "µg/mL"}, {"measurement": "cytotoxicity at 48 h, 6.25 µg/ml", "setting": "[4]; HepG2, 6.25 ug/ml", "value": 24.9, "unit": "%"}, {"measurement": "viability at 48 h, 6.25 µg/ml", "setting": "[4]; HepG2, 6.25 ug/ml, read-out: % Cell viability", "value": 75.1, "unit": "%"}, {"measurement": "cytotoxicity at 48 h, 12.5 µg/ml", "setting": "[4]; HepG2, 12.5 ug/ml", "value": 35.4, "unit": "%"}, {"measurement": "viability at 48 h, 12.5 µg/ml", "setting": "[4]; HepG2, 12.5 ug/ml, read-out: % Cell viability", "value": 64.9, "unit": "%"}, {"measurement": "cytotoxicity at 48 h, 25 µg/ml", "setting": "[4]; HepG2, 25 ug/ml", "value": 55.9, "unit": "%"}, {"measurement": "viability at 48 h, 25 µg/ml", "setting": "[4]; HepG2, 25 ug/ml, read-out: % Cell viability", "value": 44.1, "unit": "%"}, {"measurement": "cytotoxicity at 48 h, 50 µg/ml", "setting": "[4]; HepG2, 50 ug/ml", "value": 69.9, "unit": "%"}, {"measurement": "viability at 48 h, 50 µg/ml", "setting": "[4]; HepG2, 50 ug/ml, read-out: % Cell viability", "value": 30.1, "unit": "%"}, {"measurement": "cytotoxicity at 48 h, 100 µg/ml", "setting": "[4]; HepG2, 100 ug/ml", "value": 83.5, "unit": "%"}, {"measurement": "viability at 48 h, 100 µg/ml", "setting": "[4]; HepG2, 100 ug/ml, read-out: % Cell viability", "value": 16.5, "unit": "%"}, {"measurement": "IC50", "setting": "[5]; mean ± SE, n = 3", "value": 4.72, "unit": "µM"}, {"measurement": "Selectivity Index (COX-1/COX-2)", "setting": "[5]; ratio of IC50 COX-1 to IC50 COX-2", "value": 0.83}, {"measurement": "cytotoxicity at 48 h, 6.25 µg/ml", "setting": "[6]; Caco-2, 6.25 ug/ml", "value": 27.8, "unit": "%"}, {"measurement": "viability at 48 h, 6.25 µg/ml", "setting": "[6]; Caco-2, 6.25 ug/ml, read-out: % Cell viability", "value": 72.2, "unit": "%"}, {"measurement": "cytotoxicity at 48 h, 12.5 µg/ml", "setting": "[6]; Caco-2, 12.5 ug/ml", "value": 37.8, "unit": "%"}, {"measurement": "viability at 48 h, 12.5 µg/ml", "setting": "[6]; Caco-2, 12.5 ug/ml, read-out: % Cell viability", "value": 62.2, "unit": "%"}, {"measurement": "cytotoxicity at 48 h, 25 µg/ml", "setting": "[6]; Caco-2, 25 ug/ml", "value": 48.9, "unit": "%"}, {"measurement": "viability at 48 h, 25 µg/ml", "setting": "[6]; Caco-2, 25 ug/ml, read-out: % Cell viability", "value": 51.1, "unit": "%"}, {"measurement": "cytotoxicity at 48 h, 50 µg/ml", "setting": "[6]; Caco-2, 50 ug/ml", "value": 66.5, "unit": "%"}, {"measurement": "viability at 48 h, 50 µg/ml", "setting": "[6]; Caco-2, 50 ug/ml, read-out: % Cell viability", "value": 33.5, "unit": "%"}, {"measurement": "cytotoxicity at 48 h, 100 µg/ml", "setting": "[6]; Caco-2, 100 ug/ml", "value": 86.7, "unit": "%"}, {"measurement": "viability at 48 h, 100 µg/ml", "setting": "[6]; Caco-2, 100 ug/ml, read-out: % Cell viability", "value": 13.3, "unit": "%"}, {"measurement": "IC50", "setting": "[7]", "value": 32.8, "unit": "µg/mL"}, {"measurement": "IC50", "setting": "[8]", "value": 3.93, "unit": "µM"}]}]}
